Data from PMC12251549, “Engineering a Radiohybrid PSMA Ligand with an Albumin-Binding Moiety and Pharmacokinetic Modulation via an Albumin-Binding Competitor for Radiotheranostics” (Molecules, 2025).

What was measured:
[1] = Biodistribution after intravenous co-injection of [125I]5 and [67Ga]Ga-PSMA-617 (Table S1); format: in vivo, normal mice (ddY); details: normal mice; for Biodistribution of radioactivity: Blood / Biodistribution of radioactivity: Bone / Biodistribution of radioactivity: Brain / Biodistribution of radioactivity: Heart / Biodistribution of radioactivity: Kidney / Biodistribution of radioactivity: L. Intestine / Biodistribution of radioactivity: Liver / Biodistribution of radioactivity: Lung / Biodistribution of radioactivity: Muscle / Biodistribution of radioactivity: Neck / Biodistribution of radioactivity: Pancreas / Biodistribution of radioactivity: S. Intestine / Biodistribution of radioactivity: Spleen / Biodistribution of radioactivity: Stomach: i.v.
Method: [^67Ga]Ga-PSMA-617 (37 kBq) and [^125I]5 (37 kBq) or [^125I]5 (37 kBq) and [^211At]6 (37 kBq) were intravenously co-administered into three or four normal mice at each timepoint (6 weeks male ddY mice, 28–30 g, Japan SLC, Inc., Hamamatsu, Japan). Mice were sacrificed at 10 min, 1 h, 4 h, and 24 h ([^67Ga]Ga-PSMA-617 and [^125I]5) or at 10 min, 1 h, 4 h, 12 h, and 24 h ([^125I]5 and [^211At]6) postinjection of the radiolabeled compounds. Tissues of interest were removed and weighed, and the radioactivity of ^67Ga and ^125I and ^125I and ^211At were determined with an auto well gamma counter (ARC-8001) and corrected for background radiation as described in the Cellular Uptake Experiments Section. To determine the amount and routes of the radioactivity excreted from the body for 24 h after the injection of radiolabeled compounds, mice were housed in metabolic cages (METABOLICA, SUGIYAMA-GEN Co., Ltd., Tokyo, Japan). Data are shown as the percentage of injected dose per gram of tissues (%ID/g) or %ID.

[2] = In vitro stability test in 0.1 M phosphate buffer; format: physicochemical; details: 0.1 M PB solution containing 10% ethanol, 37 °C, 24 h, mean ± SD for three samples
Method: samples were analyzed by RP-HPLC using a Cosmosil 5C18-AR-II (4.6 × 150 mm) at a flow rate of 1 mL/min with a gradient mobile phase of 60% methanol in water with 0.1% trifluoroacetic acid (TFA) to 80% methanol in water with 0.1% TFA for 20 min.
In vitro stability test in 0.1 M PB solution containing 10% ethanol was performed. The […]
and 97.1 ± 0.9% (mean ± SD for three samples) after incubating at 37 °C for 24 h, […]

[3] = Biodistribution with post-administration of albumin-binding competitor IPBA; format: in vivo, normal mice (ddY); details: normal mice, IPBA at 1 h postinjection, 10 molar equivalent of blood albumin; except in the kidney
Method: To evaluate the effects of an albumin-binding competitor (sodium salt of IPBA) in normal mice, [^125I]5 and [^211At]6 were intravenously co-administered. At 1 h postinjection of the radiolabeled compounds, IPBA (3.4 mg, 11 µmol) dissolved in saline at a 10 molar equivalent of blood albumin was administered. Mice were sacrificed at 65 min, 70 min, 2 h, 4 h, 12 h, and 24 h postinjection of [^125I]5 and [^211At]6. Tissues of interest were treated, and the radioactivity was measured in the same manner as above. Data are also shown as %ID/g or %ID.

O=C([O-])CN1CCN(CC(=O)[O-])CCN(CC(=O)NC(CCCCNC(=O)CCCc2ccc([125I])cc2)C(=O)NCC2CCC(C(=O)NC(Cc3ccc4ccccc4c3)C(=O)NCCCCC(NC(=O)NC(CCC(=O)O)C(=O)O)C(=O)O)CC2)CCN(CC(=O)[O-])CC1.[Ga+3] (stereo not shown) [[^125I]5]
Excretion in feces ([1]; 24 h postinjection): 2.3 ± 0.3 %ID | Excretion in urine ([1]; 24 h postinjection): 10.3 ± 0.7 %ID | Blood retention ([1]; compared with [67Ga]Ga-PSMA-617): significantly prolonged blood retention | Biodistribution of radioactivity: Blood ([1]; 10 min after injection): 26.76 (0.56) % injected dose per gram | Biodistribution of radioactivity: Bone ([1]; 10 min after injection): 2.56 (0.45) % injected dose per gram | Biodistribution of radioactivity: Brain ([1]; 10 min after injection): 0.66 (0.14) % injected dose per gram | Biodistribution of radioactivity: Heart ([1]; 10 min after injection): 4.87 (0.63) % injected dose per gram | Biodistribution of radioactivity: Kidney ([1]; 10 min after injection): 10.29 (0.97) % injected dose per gram | Biodistribution of radioactivity: L. Intestine ([1]; 10 min after injection): 1.10 (0.07) % injected dose per gram | Biodistribution of radioactivity: Liver ([1]; 10 min after injection): 3.89 (0.34) % injected dose per gram | Biodistribution of radioactivity: Lung ([1]; 10 min after injection): 10.56 (0.97) % injected dose per gram | Biodistribution of radioactivity: Muscle ([1]; 10 min after injection): 0.89 (0.02) % injected dose per gram | Biodistribution of radioactivity: Neck ([1]; 10 min after injection): 0.04 (0.01) % injected dose | Biodistribution of radioactivity: Pancreas ([1]; 10 min after injection): 3.05 (0.20) % injected dose per gram | Biodistribution of radioactivity: S. Intestine ([1]; 10 min after injection): 2.11 (0.10) % injected dose per gram | Biodistribution of radioactivity: Spleen ([1]; 10 min after injection): 3.22 (0.38) % injected dose per gram | Biodistribution of radioactivity: Stomach ([1]; 10 min after injection): 0.78 (0.10) % injected dose | Biodistribution of radioactivity: Blood ([1]; 1 h after injection): 16.99 (1.80) % injected dose per gram | Biodistribution of radioactivity: Bone ([1]; 1 h after injection): 2.18 (0.26) % injected dose per gram | Biodistribution of radioactivity: Brain ([1]; 1 h after injection): 0.44 (0.19) % injected dose per gram | Biodistribution of radioactivity: Heart ([1]; 1 h after injection): 4.00 (0.35) % injected dose per gram | Biodistribution of radioactivity: Kidney ([1]; 1 h after injection): 6.22 (0.27) % injected dose per gram | Biodistribution of radioactivity: L. Intestine ([1]; 1 h after injection): 1.16 (0.18) % injected dose per gram | Biodistribution of radioactivity: Liver ([1]; 1 h after injection): 2.67 (0.11) % injected dose per gram | Biodistribution of radioactivity: Lung ([1]; 1 h after injection): 9.59 (2.25) % injected dose per gram | Biodistribution of radioactivity: Muscle ([1]; 1 h after injection): 1.06 (0.06) % injected dose per gram | Biodistribution of radioactivity: Neck ([1]; 1 h after injection): 0.03 (0.01) % injected dose | Biodistribution of radioactivity: Pancreas ([1]; 1 h after injection): 2.30 (0.22) % injected dose per gram | Biodistribution of radioactivity: S. Intestine ([1]; 1 h after injection): 2.02 (0.21) % injected dose per gram | Biodistribution of radioactivity: Spleen ([1]; 1 h after injection): 2.01 (0.29) % injected dose per gram | Biodistribution of radioactivity: Stomach ([1]; 1 h after injection): 0.75 (0.08) % injected dose | Biodistribution of radioactivity: Blood ([1]; 4 h after injection): 14.52 (0.22) % injected dose per gram | Biodistribution of radioactivity: Bone ([1]; 4 h after injection): 1.57 (0.64) % injected dose per gram | Biodistribution of radioactivity: Brain ([1]; 4 h after injection): 0.30 (0.03) % injected dose per gram | Biodistribution of radioactivity: Heart ([1]; 4 h after injection): 3.97 (0.22) % injected dose per gram | Biodistribution of radioactivity: Kidney ([1]; 4 h after injection): 6.93 (0.24) % injected dose per gram | Biodistribution of radioactivity: L. Intestine ([1]; 4 h after injection): 2.03 (0.07) % injected dose per gram | Biodistribution of radioactivity: Liver ([1]; 4 h after injection): 2.76 (0.11) % injected dose per gram | Biodistribution of radioactivity: Lung ([1]; 4 h after injection): 8.37 (0.62) % injected dose per gram | Biodistribution of radioactivity: Muscle ([1]; 4 h after injection): 1.41 (0.07) % injected dose per gram | Biodistribution of radioactivity: Neck ([1]; 4 h after injection): 0.03 (0.00) % injected dose | Biodistribution of radioactivity: Pancreas ([1]; 4 h after injection): 2.33 (0.13) % injected dose per gram | Biodistribution of radioactivity: S. Intestine ([1]; 4 h after injection): 1.99 (0.14) % injected dose per gram | Biodistribution of radioactivity: Spleen ([1]; 4 h after injection): 1.59 (0.35) % injected dose per gram | Biodistribution of radioactivity: Stomach ([1]; 4 h after injection): 0.69 (0.08) % injected dose | Biodistribution of radioactivity: Blood ([1]; 24 h after injection): 9.84 (0.85) % injected dose per gram | Biodistribution of radioactivity: Bone ([1]; 24 h after injection): 1.57 (0.22) % injected dose per gram | Biodistribution of radioactivity: Brain ([1]; 24 h after injection): 0.30 (0.03) % injected dose per gram | Biodistribution of radioactivity: Heart ([1]; 24 h after injection): 2.85 (0.36) % injected dose per gram | Biodistribution of radioactivity: Kidney ([1]; 24 h after injection): 7.37 (0.99) % injected dose per gram | Biodistribution of radioactivity: L. Intestine ([1]; 24 h after injection): 1.15 (0.35) % injected dose per gram | Biodistribution of radioactivity: Liver ([1]; 24 h after injection): 1.59 (0.34) % injected dose per gram | Biodistribution of radioactivity: Lung ([1]; 24 h after injection): 6.18 (0.83) % injected dose per gram | Biodistribution of radioactivity: Muscle ([1]; 24 h after injection): 1.08 (0.11) % injected dose per gram | Biodistribution of radioactivity: Neck ([1]; 24 h after injection): 0.02 (0.00) % injected dose | Biodistribution of radioactivity: Pancreas ([1]; 24 h after injection): 1.66 (0.46) % injected dose per gram | Biodistribution of radioactivity: S. Intestine ([1]; 24 h after injection): 1.11 (0.31) % injected dose per gram | Biodistribution of radioactivity: Spleen ([1]; 24 h after injection): 1.62 (0.16) % injected dose per gram | Biodistribution of radioactivity: Stomach ([1]; 24 h after injection): 0.67 (0.13) % injected dose | Radiochemical purity after incubation (in vitro stability) [2]: 97.0 ± 0.7% | Effect of IPBA administration on radioactivity levels in tissues [3]: significantly decreased
